Legend:
[1] = test system: hBD2; assay: Quantitative RT-PCR of hBD2 expression, 2nd step (dose-effect); type: cell-based, human; details: for hBD2 expression, percentage of the control: 16 h, untreated control = 100%
Procedure: (§1) The actives are then tested on 5 concentrations (from 0.001% to max viability) in quadruplicate on normal human keratinocytes as a monolayer on 96-well culture plates, in a specific medium enriched with calcium and free of serum (CaCl2 1.7 mM) (same conditions as in example 1).
(§2) After 16 h, the supernatants are collected and cells are dry frozen at −80° C. after rinsing in PBS.
(§3) Total RNA are extracted using a 96-well extraction kit on silica columns and assayed using a 96-well spectrophotometer at 260 and 280 nm. RNA are diluted to 5 ng/μL.
(§4) Quantitative RT-PCR in 96 wells on actin, hBD2 and hBD3 is initially carried out on 50 ng of RNA, using a one-step kit containing Sybrgreen, in a fluorescence thermocycler with the same primers as previously (0.5 μM). The amplification program is as follows: 50° C., 30 min; 94° C., 15 min; (94° C., 15 s; 60° C., 30 s; 72° C., 30 s)×50 cycles; 90° C., 1 min; 30° C., 1 min; 50° C. to 95° C. (10 s every ° C.); 14° C., infinite.
(§5) A study of the fusion graphs makes it possible to verify the specificity of amplified products. The fluorescence graph as a function of the number of cycles gives the C(T) value corresponding to the number of cycles needed to obtain initiation of the fluorescence signal. The more an mRNA is expressed, the lower the C(T) value. Calculation of Sgene=(½)^C(T) for each RNA takes into consideration the exponential increase in the number of copies during amplification. The Sgene hBD2/Sgene actin and Sgene hBD3/Sgene actin ratios can be compared with those of the untreated control to give the percentage stimulation produced.
(§6) Quantitative RT-PCR makes it possible to obtain a basal value for the defensin expression for untreated controls. The results are therefore expressed as a percentage of the control. IL8, IL1 and MIP3 cytokine levels are given as pg/mL/RNA concentration (in ng/μL).
(§7) In the same way as in example 2, retinoic acid and retinol were tested for their capacity to stimulate hBD2 and/or hBD3.

[2] = test system: animals; details: in vivo
[3] = test system: human volunteers; details: in vivo
[4] = test system: hBD3; assay: Quantitative RT-PCR of hBD3 expression, 2nd step (dose-effect); type: cell-based, human; details: for hBD3 expression, percentage of the control: 16 h, untreated control = 100%
Procedure: as §1, §2, §3, §4, §5, §6, §7

SMILES | effect on hBD2 (in words) ([1]; 0.01%) | hBD2 expression, percentage of the control ([1]; conc. 0.01%) [%] | irritation / allergy, primary skin irritation (in words) [2] | irritation / allergy, irritant or sensitizing potential (in words) [3] | effect on hBD3 (in words) ([4]; 0.01%) | hBD3 expression, percentage of the control ([4]; conc. 0.01%) | hBD2 expression, percentage of the control ([1]; conc. 0.005%) [%] | hBD3 expression, percentage of the control ([4]; conc. 0.005%) [%]
CC1=C(/C=C/C(C)=C/C=C/C(C)=C/CO)C(C)(C)CCC1 [Retinol] | weakly stimulates hBD2 | 168 | not inducing any inflammatory, irritation or intolerance reaction | not inducing any inflammatory, irritation or intolerance reaction | strongly stimulates hBD3 | 17 562% |  | 
CC1=C(/C=C/C(C)=C/C=C/C(C)=C/C(=O)O)C(C)(C)CCC1 [Retinoic acid] |  |  | not inducing any inflammatory, irritation or intolerance reaction | not inducing any inflammatory, irritation or intolerance reaction |  |  | 26 | 161
